In data set [1] the test system is Biomphalaria glabrata. The settings on record: cited from earlier work.
For data set [2], the system named is Bulinus truncatus. As to conditions: cited from earlier work.
Data set [3] relates to MCF-7 cells. As to conditions: cited from earlier work.
For data set [4], the system named is HeLa cells. The settings on record: cited from earlier work.
Data set [5] concerns MCF-7, MDA-MB-231, HeLa, SiHa and A2780 cells. The settings on record: previous antiproliferative assay; cited from earlier work.
For data set [6], the system named is A549, HCT116, SK-HEP-1, and HL-60. Further details: method as in PMID 29641986. As to conditions: four cancer cell lines; cited from earlier work.
Data set [7] has as its system MCF-7 cells. Put plainly: MTT antiproliferative assay, MCF-7 breast cancer cells. The settings on record: for inhibition at 10 µM / inhibition at 30 µM: Homo sapiens, read-out: Inhibition (%) ± SEM. The class given is cell-based, human. The text has this: (§1) The antiproliferative activities of the isolated compounds were investigated on a panel of human adherent cancer cell lines using the 3-(4,5-dimethylthiazol-2-yl)-2,5-diphenyltetrazolium bromide) (MTT) assay. Cell lines isolated from cervical (HeLa and SiHa), breast (MCF-7 and MDA-MB-231), ovarian cancers (A2780), and non-malignant mouse fibroblasts (NIH/3T3) were purchased from the European Collection of Cell Cultures (Salisbury, UK). The SiHa cell line was obtained from the […] (Manassas, VA, USA). The cell culturing and determination of the antiproliferative effects of the isolated compounds were conducted using a methodology described previously. Calculations were performed using GraphPad Prism 5.01 software (GraphPad Software Inc., San Diego, CA, USA).
(§2) The antiproliferative properties of centrapalus coumarins N (2) and O (5) were investigated against a panel of human adherent tumor cell lines of gynecological origin by in vitro MTT assay (Table 4). The amounts of the other compounds were insufficient for the in vitro assay. Compounds 2 and 5 were tested on the breast (MCF-7, MDA-MB-231), cervical (HeLa, SiHa), and ovarian (A2780) cancer cells in two concentrations (10 and 30 µM). The anticancer agent cisplatin was used as a positive control. […] Non-cancerous mouse fibroblasts (NIH/3T3) were additionally included to characterize the cancer selectivity of the tested compounds. Since compounds 2 and 5 elicited weak action against fibroblasts, lower than against the ovarian cancer cells, their effect detected on A2780 cells could be regarded as selective.

The subject of data set [8] is MDA-MB-231 cells. Put plainly: MTT antiproliferative assay, MDA-MB-231 breast cancer cells. The class given is cell-based, human. The settings on record: for inhibition at 10 µM / inhibition at 30 µM: Homo sapiens, read-out: Inhibition (%) ± SEM.
Source text: as §1, §2
A general note: Formazan colour is commonly taken as a measure of viable cells.

For data set [9], the system named is HeLa cells. Put plainly: MTT antiproliferative assay, HeLa cervical cancer cells. As to conditions: for inhibition at 10 µM / inhibition at 30 µM: Homo sapiens, read-out: Inhibition (%) ± SEM. The class given is cell-based, human.
Source text: as §1, §2

The subject of data set [10] is SiHa cells. Put plainly: MTT antiproliferative assay, SiHa cervical cancer cells. The class given is cell-based, human. As to conditions: for inhibition at 10 µM / inhibition at 30 µM: Homo sapiens, read-out: Inhibition (%) ± SEM.
Source text: as §1, §2

The subject of data set [11] is A2780 cells. Put plainly: MTT antiproliferative assay, A2780 ovarian cancer cells. As to conditions: for IC50: A2780, read-out: Calculated IC50 Value (converted); for inhibition at 10 µM / inhibition at 30 µM: read-out: Inhibition (%) ± SEM. The class given is cell-based, human.
Source text: as §1, §2

Data set [12] relates to NIH/3T3 mouse fibroblasts. Put plainly: MTT antiproliferative assay, non-malignant NIH/3T3 fibroblasts. The class given is cell-based. As to conditions: for inhibition at 10 µM / inhibition at 30 µM: Mus musculus, NIH3T3, read-out: Inhibition (%) ± SEM; for action against fibroblasts (in words): NIH/3T3, lower than against the ovarian cancer cells.
Source text: as §1, §2

Data set [13] concerns Leishmania major promastigotes. Further details: method as in PMID 9170288. As to conditions: in vitro; cited from earlier work.
Data set [14] relates to Plasmodium falciparum schizonts. Further details: method as in PMID 9170288. The settings on record: in vitro; cited from earlier work.
The subject of data set [15] is human lymphocytes. The arrangement: method as in PMID 9170288. The settings on record: cited from earlier work.
Data set [16] deals with A2780 cells. Further details: method as in doi:10.1016/j.arabjc.2023.104777. The settings on record: previous work; cited from earlier work.
In data set [17] the test system is SiHa cells. The arrangement: method as in doi:10.1016/j.arabjc.2023.104777. The settings on record: previous work; cited from earlier work.
[18] abbreviates: ref our previous studies, read-out: IC50 (remarkable antiproliferative activity).
The mark [19] stands for this setting: read-out: Calculated IC50 Value (converted).

The values that follow come from publication PMC11279841, “New Members of the Centrapalus Coumarin and Pauciflorin Series from Centrapalus pauciflorus” (Pharmaceutics, 2024).

Where two headings read alike, the source gives them in different places.

Regarding isoethuliacoumarin A, the “molluscicidal activity (in words)” value in data set [1] and in [2] was “molluscicidal activity” throughout.
In the case of centrapalus coumarin B, the IC50 in data set [3] (setting [18]) and in [4] (setting [18]) was under 10 µM in each case.
Take `CC1=C[C@H](C[C@]2(C)c3c(c4c(C)cccc4oc3=O)O[C@@H]2C)OC1=O` [Compound 8, Hoehnelia coumarin]: the “antiproliferative activity (in words)” value in data set [5] is “ineffective”.
Regarding centrapalus coumarin F, the IC50 in data set [3] (setting [18]) and in data set [4] (setting [18]) was under 10 µM each time.
As for pauciflorin F, the IC50 in data set [3] (setting [18]) and in [4] (setting [18]) was under 10 µM throughout.
`C/C(=C\CC[C@@]1(C)C=Cc2c(O)cc(C)cc2O1)CC(=O)CC(C)C` [anthopogochromene B]: the “cytotoxic activity (in words)” value in [6] is recorded as “moderate cytotoxic activity”.
For the molecule `N.N.[Cl][Pt][Cl]` [Cisplatin, cisplatin, reference compound], the “Inhibition (%) ± SEM” value in data set [7] (MCF7, 10 µM) was determined as 66.91 ± 1.81%; in data set [7] (MCF7, 30 µM), 96.80 ± 0.35%; in data set [8] (MDA-MB-231, 10 µM), 42.72 ± 2.68%; in [8] (MDA-MB-231, 30 µM) it was 86.44 ± 0.42%; in data set [9] (10 µM) it was 42.61 ± 2.33%; in data set [9] (30 µM), 99.93 ± 0.26%. Moreover, the “Inhibition (%) ± SEM” value in data set [10] (10 µM) was 60.98 ± 0.92%; in data set [10] (30 µM), 88.95 ± 0.53%; in data set [11] (A2780, 10 µM), 83.57 ± 2.21%; in [11] (A2780, 30 µM), 95.02 ± 0.28%; in data set [12] (NIH/3T3, 10 µM), 73.88 ± 1.63%; in [12] (NIH/3T3, 30 µM), 97.10 ± 0.15%. Besides, the IC50 was 5.78 µM in data set [7] (MCF7, read-out: Calculated IC50 Value (converted)); 10.2 µM in data set [8] (MDA-MB-231, read-out: Calculated IC50 Value (converted)); 12.4 µM in data set [9] (setting [19]); 4.29 µM in data set [10] (setting [19]); 1.3 µM in [11]; 5.5 µM in data set [12] (NIH/3T3, read-out: Calculated IC50 Value (converted)).
Consider `C=CC1(C)CC(=O)C2C(=O)c3c(C)cccc3OC21C1(C)Cc2c(c3c(C)cccc3oc2=O)O1` (centres unmarked) [Compound 2, centrapalus coumarin N], for which the inhibition at 10 µM in data set [7] (MCF7, 10 µM) was 34.6 ± 2.19%; in data set [8] (MDA-MB-231, 10 µM), under 20%; in [9] (10 µM), under 20%; in [10] (10 µM), under 20%; in [11] (Homo sapiens, A2780, 10 µM) it was 27.7 ± 1.34%; in [12] (NIH/3T3, 10 µM), under 20%. The inhibition at 30 µM came to 44.2 ± 1.76% in [7] (MCF7, 30 µM); 25.4 ± 2.06% in data set [8] (MDA-MB-231, 30 µM); 41.8 ± 1.42% in data set [9] (30 µM); 30.7 ± 1.49% in data set [10] (30 µM); 66.2 ± 0.7% in [11] (Homo sapiens, A2780, 30 µM); 48.5 ± 2.2% in data set [12] (NIH/3T3, 30 µM). Further, in data set [11] (Homo sapiens), the IC50 is 20.1 µM. For the same molecule, in [11], the “antiproliferative activity against ovarian cancer cells (in words)” value was “considerable and selective”. Moreover, the “action against fibroblasts (in words)” value in data set [12] is listed as “weak action”.
For the molecule `Cc1cccc2oc(=O)c3c(c12)O[C@@H](C)[C@@]3(C)CC(=O)[C@@H]1OC1(C)C` [2′-epicycloisobrachycoumarinone epoxide], the “activity against Leishmania major promastigotes (in words)” value in [13] is listed as “exhibited activity”. Besides, the “activity against Plasmodium falciparum schizonts (in words)” value in data set [14] is listed as “exhibited activity”. In [15], the “inhibition on the proliferation of human lymphocytes (in words)” value was “weak inhibition”.
Take `C=C[C@]1(C)C[C@@H](C=C(C)C)Oc2c1c(=O)oc1cccc(C)c21` [Compound 7, Centrapalus coumarin A]: the IC50 was under 10 µM in data set [3] (setting [18]); 9.21 µM in data set [4] (previous work, read-out: IC50); under 10 µM in [4] (setting [18]); 19.7 µM in [16].
Turning to `C=C[C@@]1(C)C[C@@]2(C=C(C)C(=O)O2)Oc2c1c(=O)oc1cccc(C)c21` [Compound 6], the half-maximal inhibitory concentration (IC50) in [3] (previous work, read-out: IC50) was 15.3 µM; in data set [4] (previous work, read-out: IC50), 14.6 µM; in data set [17] it was 18.9 µM; in [16], 29.9 µM.
On to `C=C[C@@]1(C)C[C@@H](/C=C(\C)C(=O)OC)Oc2c1c(=O)oc1cccc(C)c21` [Compound 5, (3′R),(5′S)-(E)-methyl 3-(4,10-dimethyl-5-oxo-4-vinyl-2,3,4,5-tetrahydropyrano[3,2-c]chromen-2-yl)-2-methyl acrylate], for which the inhibition at 10 µM was under 20% in [7] (MCF7, 10 µM); under 20% in data set [8] (MDA-MB-231, 10 µM); under 20% in data set [9] (10 µM); under 20% in [10] (10 µM); 27.4 ± 1.55% in [11] (Homo sapiens, A2780, 10 µM); under 20% in data set [12] (NIH/3T3, 10 µM). In addition, the inhibition at 30 µM amounted to 35.5 ± 1.51% in [7] (MCF7, 30 µM); 25.5 ± 1.2% in data set [8] (MDA-MB-231, 30 µM); 31.3 ± 1.18% in [9] (30 µM); 33.3 ± 1.32% in data set [10] (30 µM); 69.3 ± 1.12% in data set [11] (Homo sapiens, A2780, 30 µM); 28.4 ± 2.5% in [12] (NIH/3T3, 30 µM). Also, the IC50 in data set [11] (Homo sapiens) was 16 µM. For the same molecule, in data set [11], the “antiproliferative activity against ovarian cancer cells (in words)” value is “considerable and selective”. Moreover, the “action against fibroblasts (in words)” value in [12] is on record as “weak action”.
In the case of Ethuliacoumarin A, the “molluscicidal activity (in words)” value in data set [1] and in data set [2] was “molluscicidal activity” throughout.
In the case of `Cc1cccc2oc(=O)c3c(c12)O[C@H](C)[C@@]3(C)CC(=O)[C@@H]1OC1(C)C` [cycloisobrachycoumarinone epoxide], in [13], the “activity against Leishmania major promastigotes (in words)” value is listed as “exhibited activity”. For the same molecule, in data set [14], the “activity against Plasmodium falciparum schizonts (in words)” value is listed as “exhibited activity”. For the same molecule, the “inhibition on the proliferation of human lymphocytes (in words)” value in data set [15] was “weak inhibition”.

As usually defined, the IC50 is the point on the concentration scale where inhibition reaches its midpoint. The term inhibition denotes the drop in the measured response relative to a control, in per cent.
